The results in this text go back to patent publication US10201158B2, “Plant disease control composition and method for controlling plant disease by application of same” (MITSUI CHEMICALS AGRO, INC., priority 2014, dated 2019).

Where two headings read alike, the source gives them in different places.

The subject of one assay is Sphaerotheca fuliginea. The assay can be described thus: Cucumber powdery mildew preventive test. Conditions: in vivo. In kind it is in vivo. Here is the method:
In a greenhouse, cucumber (variety: Sagamihanshiro) planted in a plastic pot having a diameter of 5 cm was grown to the 3rd to 5th-leaf stage. Spray was carried out in the same manner as in Test example 1, and 3 days after the spray, a conidia suspension prepared from Sphaerotheca fuliginea were inoculated on the leaf surface. After inoculation, the pots were placed in a thermostatic greenhouse (20 to 25° C.), and controlling effects were examined after 7 days from the inoculation. In the examination, a ratio of lesion area occupied per one leaf of cucumber was determined according to the same index as in Test example 1, and the control value and the theoretical value according to Colby's formula were similarly calculated.
Wettable powder prepared in compliance with Comparative Preparation Example 4 containing the compounds indicated in Table 7-9 were sprayed to the cucumber leaves, a conidiospore suspension prepared from Sphaerotheca fuliginea was inoculated onto the plants, and the controlling effects were examined in a manner similar to Test Example 6.

A further assay concerns Botrytis cinerea. Conditions: in vivo.
The next assay concerns Pyricularia oryzae. It counts as in vivo. Conditions: Table 3-4, group b ingredient alone.

Turning to `Fc1ccc([C@]2(Cn3cncn3)O[C@H]2c2ccccc2Cl)cc1` (racemic) [Epoxiconazole (b-24), Epoxiconazole], the Preventive value with Sphaerotheca fuliginea is reported as 40; in the assay on Botrytis cinerea, 33.

`CCCCNC(=O)n1c(NC(=O)OC)nc2ccccc21` [Benomyl (b-58), Benomyl]: the values for the Preventive value in the assay with Sphaerotheca fuliginea and in the assay on Botrytis cinerea were 50 and 60, respectively. As for `COC(=O)Nc1nc2ccccc2[nH]1` [Carbendazim (b-59), Carbendazim], the Preventive value with Botrytis cinerea is 40. For `CC1=C(C(=O)Nc2ccccc2)SCCO1` [Carboxin (b-41), Carboxin], the Control value in the assay with Sphaerotheca fuliginea was 40. In addition, in the assay with Botrytis cinerea, the Preventive value is listed as 17.

Turning to `Cc1ccc2nc3sc(=O)sc3nc2c1` [Chinomethionat (b-74), Chinomethionat], the figures for the Preventive value in the assay with Sphaerotheca fuliginea and with Botrytis cinerea were 50 and 17, respectively. The corresponding values for `Fc1ccc(C2(Cn3nc[nH]c3=S)OC2c2ccccc2Cl)c(F)c1` (stereo not drawn) [Compound of (V) (b-36)] are 33 and 40. Consider `OC(c1cccnc1)c1c(-c2ccc(Cl)cc2F)noc1-c1ccc(F)cc1F` (stereo not drawn) [Compound of (XVIII) (b-92)], for which the Preventive value is listed as 40 in the assay with Sphaerotheca fuliginea and 50 with Botrytis cinerea. As to `CON(C(=O)c1cn(C)nc1C(F)F)C(C)Cc1c(Cl)cc(Cl)cc1Cl` (stereo not drawn) [Compound of formula (III) (b-8)], the Preventive value with Sphaerotheca fuliginea stood at 60; in the assay on Botrytis cinerea, 40. As for `CC(C)c1ccc(Cl)cc1CN(C(=O)c1c(C(F)F)nn(C)c1F)C1CC1` [Compound of formula (IV) (b-9)], the Preventive value in the assay with Sphaerotheca fuliginea amounted to 60; in the assay with Botrytis cinerea, 40. Consider `Cc1nn(C)c(Nc2c(F)cc(Cl)cc2F)c1-c1ccc(F)cc1Cl` [Compound of formula (XV)-1 (b-89)], for which the Preventive value with Sphaerotheca fuliginea and in the assay with Botrytis cinerea was 40 in each case. Take `CCN(C)/C=N/c1cc(C)c(Oc2nc(Cc3ccc(Cl)cc3)ns2)cc1C` [Compound of formula (XVII) (b-91)]: the Preventive value in the assay on Sphaerotheca fuliginea and in the assay on Botrytis cinerea was 40 throughout.

`CC(C1CC1)C(O)(Cn1cncn1)c1ccc(Cl)cc1` (stereo not drawn) [Cyproconazole (b-28), Cyproconazole]: the Preventive value with Sphaerotheca fuliginea is on record as 47; in the assay with Botrytis cinerea, 17. In the assay with Sphaerotheca fuliginea, `Cc1cc(C2CC2)nc(Nc2ccccc2)n1` [Cyprodinil (b-61), Cyprodinil] had a Control value of 40. In addition, in the assay on Botrytis cinerea, the Preventive value was determined as 50. For `CC1COC(Cn2cncn2)(c2ccc(Oc3ccc(Cl)cc3)cc2Cl)O1` (stereo not drawn) [Difenoconazole (b-29), Difenoconazole], the Preventive value in the assay with Sphaerotheca fuliginea was determined as 40; in the assay on Botrytis cinerea it was 33. For the compound `CC(Cc1ccc(C(C)(C)C)cc1)CN1CCCCC1` (stereo not drawn) [Fenpropidin (b-102), Fenpropidin], the values for the Preventive value with Sphaerotheca fuliginea and in the assay on Botrytis cinerea were 40 and 17, respectively. On to `CC(Cc1ccc(C(C)(C)C)cc1)CN1C[C@@H](C)O[C@@H](C)C1` (stereo partly drawn) [Fenpropimorph (b-65), Fenpropimorph], for which the values for the Preventive value in the assay on Sphaerotheca fuliginea and with Botrytis cinerea were 33 and 17, respectively. `C=CCSC(=O)n1c(N)c(-c2ccccc2C)c(=O)n1C(C)C` [Fenpyrazamine (b-99), Fenpyrazamine]: the Control value with Sphaerotheca fuliginea is reported as 33.

As to `O=c1c2cc(F)ccc2nc(-n2cncn2)n1-c1ccc(Cl)cc1Cl` [Fluquinconazole (b-30), Fluquinconazole], the results for the Preventive value in the assay on Sphaerotheca fuliginea and in the assay with Botrytis cinerea were 47 and 33, respectively. The corresponding values for `C[Si](Cn1cncn1)(c1ccc(F)cc1)c1ccc(F)cc1` [Flusilazole (b-31), Flusilazole] are 33 and 17. In the case of `COc1ccccc1N1CCS/C1=C(/C#N)Sc1cc(C(F)(F)F)ccc1F` [Flutianil (b-77), Flutianil], the Preventive value in the assay with Sphaerotheca fuliginea worked out at 67; in the assay on Botrytis cinerea, 17.

With `OC(Cn1cncn1)(c1ccc(F)cc1)c1ccccc1F` (stereo not drawn) [Flutriafol (b-34), Flutriafol], the Preventive value in the assay on Sphaerotheca fuliginea was found to be 40; in the assay with Botrytis cinerea, 33. With `O=C1c2ccccc2C(=O)N1SC(Cl)(Cl)Cl` [Folpet (b-70), Folpet], the Preventive value in the assay with Sphaerotheca fuliginea is listed as 33; in the assay with Botrytis cinerea, 73.

For the compound `C=CCOC(Cn1ccnc1)c1ccc(Cl)cc1Cl` (stereo not drawn) [Imazalil (b-20), Imazalil], the Preventive value in the assay with Sphaerotheca fuliginea is recorded as 40; with Botrytis cinerea, 17. Taken in the same sequence, the figures for `CC(C)C1CCC(Cc2ccc(Cl)cc2)C1(O)Cn1cncn1` (stereo not drawn) [Ipconazole (b-25), Ipconazole] were 50 and 40. Consider `CC(C)C1C2CCC1c1c(NC(=O)c3cn(C)nc3C(F)F)cccc12` (stereo not drawn) [Isopyrazam (b-7), Isopyrazam], for which, in the assay with Sphaerotheca fuliginea, the Control value was determined as 40. Also, the Preventive value in the assay with Botrytis cinerea was 40. Turning to `N#Cc1ccccc1NC(=O)c1snc(Cl)c1Cl` [Isotianil (b-46), Isotianil], the Preventive value in the assay with Pyricularia oryzae (treatment concentration 10 + 10 ppm) is on record as 50. In the assay with Sphaerotheca fuliginea, `N#Cc1ccccc1NC(=O)c1snc(Cl)c1Cl` [Isotianil(b-46)] gave a Preventive value of 33. For `CC1(C)CCC(Cc2ccc(Cl)cc2)C1(O)Cn1cncn1` (stereo not drawn) [Metconazole (b-26), Metconazole], the figures for the Preventive value in the assay on Sphaerotheca fuliginea and in the assay on Botrytis cinerea were 50 and 40, respectively. Regarding `CNC(=O)/C(=N/OC)c1ccccc1Oc1ccccc1` [Metominostrobin (b-54), Metominostrobin], the Preventive value in the assay on Pyricularia oryzae (treatment concentration 10 + 2 ppm) was 40.

For `COc1cc(C)c(C(=O)c2c(OC)ccc(Br)c2C)c(OC)c1OC` [Metrafenone (b-82), Metrafenone], the values for the Preventive value in the assay on Sphaerotheca fuliginea and in the assay on Botrytis cinerea were 40 and 0, respectively.

For `CCCCC(C#N)(Cn1cncn1)c1ccc(Cl)cc1` (stereo not drawn) [Myclobutanil (b-35), Myclobutanil], the Preventive value in the assay on Sphaerotheca fuliginea amounted to 33; with Botrytis cinerea, 17. Turning to `CCCC(Cn1cncn1)c1ccc(Cl)cc1Cl` (stereo not drawn) [Penconazole (b-32), Penconazole], the Preventive value in the assay with Botrytis cinerea came out at 17. `CCCC(Cn1cncn1)c1ccc(Cl)cc1Cl` (stereo not drawn) [Penconazole(b-32)]: the Preventive value in the assay with Sphaerotheca fuliginea was found to be 47. `Cc1nn(C)c(F)c1C(=O)Nc1ccccc1C(C)CC(C)C` (stereo not drawn) [Penflufen (b-5), Penflufen] gave a Control value with Sphaerotheca fuliginea of 73. The Preventive value in the assay on Botrytis cinerea is listed as 47. On to `OP(O)O` [Phosphorous acid (b-105), Phosphorous acid], for which the Preventive value in the assay on Sphaerotheca fuliginea and in the assay with Botrytis cinerea was 33 in each case. `CCCN(CCOc1c(Cl)cc(Cl)cc1Cl)C(=O)n1ccnc1` [Prochloraz (b-21), Prochloraz] displayed a Preventive value with Botrytis cinerea of 17. Turning to `CCCN(CCOc1c(Cl)cc(Cl)cc1Cl)C(=O)n1ccnc1` [Prochloraz(b-21)], in the assay with Sphaerotheca fuliginea, the Preventive value is 50. As to `CCCC1COC(Cn2cncn2)(c2ccc(Cl)cc2Cl)O1` (stereo not drawn) [Propiconazole (b-27), Propiconazole], the Preventive value in the assay on Sphaerotheca fuliginea is 40; in the assay on Botrytis cinerea it was 33. As for `CCCOc1nc2ccc(I)cc2c(=O)n1CCC` [Proquinazid (b-100), Proquinazid], the Preventive value is 40 with Sphaerotheca fuliginea and 17 in the assay with Botrytis cinerea.

Take `COC(=O)NCc1cc(/C(C)=N/OCc2cccc(C)n2)ccc1Cl` [Pyribencarb (b-98), Pyribencarb]: in the assay on Botrytis cinerea, the Preventive value was found to be 40. As for `COc1cc(C)c(C(=O)c2c(OC)ncc(Cl)c2C)c(OC)c1OC` [Pyriofenone (b-83), Pyriofenone], the Preventive value in the assay on Sphaerotheca fuliginea came to 40; in the assay on Botrytis cinerea it was 33.

In the case of `CN1OC(c2ccc(Cl)cc2)CC1(C)c1cccnc1` (stereo not drawn) [Pyrisoxazole (b-103), Pyrisoxazole], the Preventive value in the assay with Sphaerotheca fuliginea is 33. `Fc1ccc(Oc2ccnc3cc(Cl)cc(Cl)c23)cc1` [Quinoxyfen (b-63), Quinoxyfen]: the figures for the Preventive value in the assay on Sphaerotheca fuliginea and in the assay on Botrytis cinerea were 60 and 17, respectively. `Cn1cc(C(=O)Nc2ccccc2C2CC2C2CC2)c(C(F)F)n1` (stereo not drawn) [Sedaxane (b-6), Sedaxane]: the Control value in the assay with Sphaerotheca fuliginea stood at 40. In addition, in the assay with Botrytis cinerea, the Preventive value is 50.

On to `CCCN(CC)CC1COC2(CCC(C(C)(C)C)CC2)O1` (stereo not drawn) [Spiroxamine (b-101), Spiroxamine], for which the results for the Preventive value in the assay on Sphaerotheca fuliginea and in the assay on Botrytis cinerea were 33 and 17, respectively.

As for `S1SSSSSSS1` [Sulfur (b-96), Sulfur], the Preventive value with Sphaerotheca fuliginea came to 73; in the assay on Botrytis cinerea, 0. As for `FC(F)C(F)(F)OCC(Cn1cncn1)c1ccc(Cl)cc1Cl` (stereo not drawn) [Tetraconazole (b-22), Tetraconazole], the values for the Preventive value in the assay on Sphaerotheca fuliginea and in the assay on Botrytis cinerea were 50 and 40, respectively. As for `c1ccc2[nH]c(-c3cscn3)nc2c1` [Thiabendazole (b-60), Thiabendazole], the Preventive value was 40 in the assay with Sphaerotheca fuliginea and 57 with Botrytis cinerea. In the assay with Sphaerotheca fuliginea, `Cc1nc(C(F)(F)F)c(C(=O)Nc2c(Br)cc(OC(F)(F)F)cc2Br)s1` [Thifluzamide (b-42), Thifluzamide] yielded a Control value of 73. In the assay on Botrytis cinerea, this compound registered a Preventive value of 23.

In the case of `CN(C)C(=S)SSC(=S)N(C)C` [Thiuram (b-68), Thiuram], the Preventive value in the assay with Sphaerotheca fuliginea is 33. For the compound `CCCCCCCCCCCCCN1CC(C)OC(C)C1` (stereo not drawn) [Tridemorph (b-66), Tridemorph], the figures for the Preventive value in the assay on Sphaerotheca fuliginea and in the assay with Botrytis cinerea were 33 and 17, respectively.

Metiram [Metiram (b-67)] had a Preventive value with Sphaerotheca fuliginea of 33. As for Propineb [Propineb (b-69)], the Preventive value with Sphaerotheca fuliginea was 17; with Botrytis cinerea, 33.
